Test system: normal adult male rats
Test: 28-day treatment of normal adult male rats: organ weight and histology of the male reproductive tract, epididymal sperm properties
Format: in vivo
Settings: 2.5 mg/kg subcutaneously, 28 days
Experimental: The above-described properties of antiestrogens were obtained in tests that were performed with the ICI-antiestrogen 7α-[9-(4,4,5,5,5-pentafluoropentylsulfinyl)-nonyl]-estra-1,3,5(10)-triene-3,17β-diol on normal adult male rats.
The test design and the results are described in the list below:
Observations regarding the organ weight of the male reproductive tract and sperm properties: […]

## C[C@]12CC[C@@H]3c4ccc(O)cc4C[C@@H](CCCCCCCCC[S+]([O-])CCCC(F)(F)C(F)(F)F)[C@H]3[C@@H]1CC[C@@H]2O (stereo partly drawn) [7α-[9-(4,4,5,5,5-pentafluoropentylsulfinyl)-nonyl]-estra-1,3,5(10)-triene-3,17β-diol]
Vs vehicle control
  histology of the organs studied (seminal vesicles, prostate, testicles, epididymis): No effects
  weight of the organs studied (seminal vesicles, prostate, testicles, epididymis): No effects
Epididymal sperm
  acrosomal state of sperm: Induction of an early incipient acrosomal reaction
  sperm motility: Inhibition of motility

— US20010056086A1, “USE OF ANTI-OESTROGENS AS MALE CONTRACEPTIVES” (priority 1995, published 2001)
